Data reported in patent US9375496B2, “Halogenated compounds for cancer imaging and treatment and methods for their use” (The University of British Columbia, priority 2013, dated 2016).
Where two headings read alike, the source gives them in different places.

Columns and labels:
[1] = target: T1, recombinant protein AR activation function-1 (AF1) (Homo sapiens, UniProt P10275); assay: Covalent binding to recombinant AR AF1 evaluated by SDS-PAGE
T1 sequence (P10275 144-486 limits assumed): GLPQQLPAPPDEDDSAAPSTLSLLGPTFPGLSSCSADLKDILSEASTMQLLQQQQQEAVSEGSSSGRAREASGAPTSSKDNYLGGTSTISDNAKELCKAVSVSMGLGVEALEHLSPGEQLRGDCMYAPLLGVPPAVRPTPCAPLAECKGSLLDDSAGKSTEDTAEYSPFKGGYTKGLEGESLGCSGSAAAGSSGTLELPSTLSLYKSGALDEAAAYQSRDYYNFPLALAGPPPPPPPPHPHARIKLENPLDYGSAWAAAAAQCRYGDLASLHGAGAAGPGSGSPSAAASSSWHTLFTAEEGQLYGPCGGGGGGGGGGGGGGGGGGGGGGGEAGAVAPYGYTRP
Protocol: Covalent binding experiments of 1d (also referred to as ^123I-EPI) to recombinant protein AR activation function-1 (AF1) was evaluated by SDS-PAGE (FIG. 15). After 6 h incubation at room temperature, 1d bound to the recombinant protein AR AF1. Less binding of 1d was observed when AR AF1 was pre-incubated with cold Z which is thought to bind to the same site as 1d. The SDS-PAGE gel was stained with Coomassie blue for loading control of the amount of AF1 protein.

AR = target: T2, AR (Homo sapiens, UniProt P10275, T878A); assay: PSA(6.1 kb)-luciferase reporter assay in LNCaP cells (androgen-induced AR transcriptional activity); format: cell-based; conditions: LNCaP, PSA(6.1 kb)-luciferase, 1 h pre-treatment, R1881 1 nM 24 h
T2 construct: LNCaP cells with endogenous AR; endogenous in cells; host or cells: LNCaP
T2 sequence (P10275 1-920 T878A): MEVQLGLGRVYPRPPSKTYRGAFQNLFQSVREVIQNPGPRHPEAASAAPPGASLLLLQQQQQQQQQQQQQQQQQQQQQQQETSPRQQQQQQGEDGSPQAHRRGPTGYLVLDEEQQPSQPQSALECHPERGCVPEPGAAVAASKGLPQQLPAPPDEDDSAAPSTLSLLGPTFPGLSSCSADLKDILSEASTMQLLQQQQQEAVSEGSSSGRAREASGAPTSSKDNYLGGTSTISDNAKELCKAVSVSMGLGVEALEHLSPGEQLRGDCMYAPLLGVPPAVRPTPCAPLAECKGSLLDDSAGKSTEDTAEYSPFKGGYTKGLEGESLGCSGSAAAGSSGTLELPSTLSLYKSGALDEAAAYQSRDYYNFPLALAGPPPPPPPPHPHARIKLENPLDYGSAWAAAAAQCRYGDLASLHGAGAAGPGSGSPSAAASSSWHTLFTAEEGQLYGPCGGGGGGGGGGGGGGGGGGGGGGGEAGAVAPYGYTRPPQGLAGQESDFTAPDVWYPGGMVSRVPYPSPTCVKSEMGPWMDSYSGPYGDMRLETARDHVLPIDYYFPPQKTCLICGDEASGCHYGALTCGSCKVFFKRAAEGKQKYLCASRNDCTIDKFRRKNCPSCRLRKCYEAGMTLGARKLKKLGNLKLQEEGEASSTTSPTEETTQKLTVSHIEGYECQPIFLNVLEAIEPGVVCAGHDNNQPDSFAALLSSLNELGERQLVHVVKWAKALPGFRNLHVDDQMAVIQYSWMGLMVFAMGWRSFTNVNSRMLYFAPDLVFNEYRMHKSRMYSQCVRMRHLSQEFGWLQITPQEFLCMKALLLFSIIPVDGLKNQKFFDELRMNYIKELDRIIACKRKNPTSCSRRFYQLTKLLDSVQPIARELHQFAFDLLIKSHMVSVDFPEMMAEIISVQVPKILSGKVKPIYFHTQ
Protocol: The PSA-luciferase (6.1 kb) reporter contains functional AREs to which AR binds in response to androgen to induce luciferase activity. LNCaP cells were transfected with the PSA(6.1 kb)-luciferase reporter for 24 h, and then treated with indicated concentration of 8d (also referred as EPI-iodide or iodinated EPI) with synthetic androgen, R1881 (1 nM) for 24 h. After 24 h of incubation with R1881, the cells were harvested, and relative luciferase activities were determined (FIG. 1A). To determine the IC50, treatments were normalized to the predicted maximal activity induction (in the absence of test compounds, vehicle only) (FIG. 1B).
To measure effect on AR, after the LNCaP cells were transfected with the PSA(6.1 kb)-luciferase reporter for 24 h, they were then treated with DMSO, 5 μM MDV3100, 25 μM Z (also referred to as EPI-002 or EPI), or 1.9 μM 8d with or without 1 nM R1881 for 24 h (FIG. 2A).
LNCaP cells were transiently transfected with PSA (6.1 kb)-luciferase for 24 h prior to pre-treatment with compounds of the invention (e.g., compounds 9d, 10d, 11d) ranging in concentration from 62.5 ng/ml to 1.5 ug/ml for 1 hour before the addition of vehicle, or synthetic androgen, R1881 (1 nM) to induce luciferase production. After 24 h of incubation with R1881, the cells were harvested, and relative luciferase activities were determined. To determine the IC50, treatments were normalized to the predicted maximal activity induction (in the absence of test compounds, vehicle only) (FIG. 1B).

[2] = Trial 1, read-out: IC50 Trial 1
[3] = Trial 2, read-out: IC50 Trial 2
[4] = Trial 3, read-out: IC50 Trial 3
[5] = Trial 4, read-out: IC50 Trial 4
[6] = average of 4 trials, read-out: IC50 Average

IC50 (AR; [2])	IC50 (AR; [3])	IC50 (AR; [4])	IC50 (AR; [5])	IC50 (AR; [6])	SMILES	covalent binding to recombinant protein AR AF1 ([1]; 6 h incubation at room temperature)	binding to AR AF1 after pre-incubation with cold Z ([1]; AR AF1 pre-incubated with cold Z)
–	–	–	–	–	CC(C)(c1ccc(OC[C@H](O)CO)cc1)c1ccc(OC[C@H](O)CCl)c([123I])c1 [Compound 1d, (R)-3-(4-(2-(4-((S)-3-chloro-2-hydroxypropoxy)-3- ^123iodophenyl)propan-2-yl)phenoxy)propane-1,2-diol]	bound	Less binding
2070 nM	2740 nM	2960 nM	3360 nM	2780 nM	CC(C)(c1ccc(OC[C@H](O)CO)cc1)c1ccc(OC[C@H](O)CCl)c(Br)c1 [Compound 9d, (R)-3-(4-(2-(3-bromo-4-((S)-3-chloro-2-hydroxypropoxy)phenyl)propan-2-yl)phenoxy)propane-1,2-diol]	–	–
2530 nM	2300 nM	2810 nM	2840 nM	2620 nM	CC(C)(c1ccc(OC[C@H](O)CO)cc1)c1ccc(OC[C@H](O)CCl)c(Cl)c1 [Compound 10d, (R)-3-(4-(2-(3-chloro-4-((S)-3-chloro-2-hydroxypropoxy)phenyl)propan-2-yl)phenoxy)propane-1,2-diol]	–	–
5950 nM	3600 nM	7330 nM	5400 nM	5570 nM	CC(C)(c1ccc(OC[C@H](O)CO)cc1)c1ccc(OC[C@H](O)CCl)c(F)c1 [Compound 11d, (R)-3-(4-(2-(4-((S)-3-chloro-2-hydroxypropoxy)-3-fluorophenyl)propan-2-yl)phenoxy)propane-1,2-diol]	–	–
